Measured values reported in patent publication US20250188078A1, “SMALL MOLECULE INHIBITORS OF THE CRL4 UBIQUITIN LIGASE” (Cornell University, priority 2022, published 2025).
Read-outs that look alike come from different tables or passages of the source. Blank lines part the entries; values can stand above or below the molecule they belong to.

Columns and labels:
[1] = system: CUL4A^high MDA-MB-468 breast cancer cells; experiment: Cell killing in CUL4-high MDA-MB-468 cells (CellTiter Glo); assay type: cell-based; conditions: Homo sapiens, 8 days treatment
Method in brief: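 Cells seeded, treated after 24 h with DMSO or compound (0 to 20 μM). Medium and compound replaced every 48 h over 8 days. Viability measured by CellTiter-Glo luminescence; EC50 (50% killing) from log(inhibitor) vs response nonlinear fit.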

[2] = target: CUL4A-DDB1-BPB interaction (Homo sapiens (Human), UniProt Q16531); experiment: AlphaLISA in vitro binding assay, CUL4A and DDB1-BPB binding; conditions: inhibition of CUL4A and DDB1-BPB binding
CUL4A-DDB1-BPB interaction, sequence (Q16531 403-706): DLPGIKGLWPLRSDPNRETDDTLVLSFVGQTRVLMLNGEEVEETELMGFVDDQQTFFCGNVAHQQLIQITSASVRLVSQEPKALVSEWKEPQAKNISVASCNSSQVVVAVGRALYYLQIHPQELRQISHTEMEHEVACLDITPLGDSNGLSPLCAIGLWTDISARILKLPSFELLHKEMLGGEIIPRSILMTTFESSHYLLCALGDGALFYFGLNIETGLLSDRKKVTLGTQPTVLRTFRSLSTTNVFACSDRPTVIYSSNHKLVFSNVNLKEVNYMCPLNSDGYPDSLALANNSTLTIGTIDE
Method in brief: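 Compound disruption of CUL4A binding to DDB1-BPB measured by AlphaLISA/AlphaScreen bead proximity in 384-well format. IC50 from nonlinear log(inhibitor)-vs-response curve fit.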

[3] = system: CUL4A^low T47D breast cancer cells; experiment: Cell killing in CUL4-low T47D cells (CellTiter Glo); assay type: cell-based; conditions: Homo sapiens, 192 h, 8 days treatment
Method: EC50 indicates compound concentration can cause 50% cell killing in CUL4° ^w T47D cells (see Table 1, column 7). CUL4A^low T47D breast cancer cells were seeded in 96 well plate. […] Change fresh medium and compounds every 48 hours. After 8 days treatment, cell viability was examined by using CellTiter Glo kit (Promega #7570) following the manufacturer's guidelines (https://www.promega.com/-/media/files/resources/protocols/technical-bulletins/0/celltiter-glo-luminescent-cell-viability-assay-protocol.pdf?rev=0d95c232094b41daa06d0c110d1d916f&sc_lang=en, hereby incorporated by reference in its entirety for all purposes). EC50 concentration was calculated by Prism 8 XY analysis nonlinear regression (curve fit-Log(inhibitor) vs response). EC50 indicates cell killing potential in CUL4 low T47D cell line and the EC50 difference between CUL4^high and CUL4^low cells indicates the small molecule cause specific cell killing.
CUL4A^high MDA-MB-468, CUL4^low (T47D), and MCF7 breast cancer cells were seeded in 96 well plates separately. […] Replace with fresh medium and compounds every 48 hours. After 8 days treatment, cell viability was examined by CellTiter Glo kit (Promega #7570). First, transfer the appropriate volume (10 ml for Cat. #G7570) of CellTiter-Glo® Buffer into the amber bottle containing CellTiter-Glo® Substrate to reconstitute the lyophilized enzyme/substrate mixture. This forms the CellTiter-Glo® Reagent. Second, add CellTiter-Glo® Reagent in an equal volume (100 μl per well for 96-well plates) to all wells. Mix contents for 2 minutes on an orbital shaker to induce cell lysis. Incubate at room temperature for 15 minutes to stabilize luminescent signal. Then record luminescence. EC50 concentration was calculated by Prism 8 XY analysis nonlinear regression (curve fit-Log(inhibitor) vs response).

DDB1-BPB [4] = target: T1, DDB1-BPB (Homo sapiens (Human), UniProt Q16531); experiment: Microscale Thermophoresis (MST) binding to DDB1-BPB; conditions: labeled DDB1-BPB, 25° C.
T1 sequence (Q16531 403-706): as above
Method: Kd represents dissociation constant, which measures the affinity of small molecule binding to the scaffold DDB1-BPB by Microscale Thermophoresis (MST) (see Table 1, column 9). MST experiments were performed on a Monolith NT 115 system (Nano Temper Technologies, Munich, Germany) using 100% LED and 60% IR-laser power (https://physiology.case.edu/media/eq manuals/eq_manual_nano-temper_mst_starting_guide.pdf, hereby incorporated by reference in its entirety for all purposes). The labeling of DDB1-BPB ([…]) was performed in labeling buffer with NHS-Red reactive dye (30 μM) (Nanotemper), which reacts efficiently with the primary amines of the proteins to form a stable dye protein conjugates. The labeling reaction was carried out at RT. A 16-point serial dilution (1:1) was prepared for compound at the final concentration ranged from 200 µM to 3 nM in PBS containing 0.05% tween. The samples were filled into Premium capillaries and measurements were conducted at 25° C. An equation implemented by the software MO-S002 MO Affinity Analysis, provided by the manufacturer, was used for fitting normalized fluorescence values at different concentrations of ligands.

MCF7 breast cancer cells = experiment: Cell killing in MCF7 cells (CellTiter Glo); assay type: cell-based; conditions: Homo sapiens, MCF7, 192 h; Table 3, 0 to 20 μM compound, 8 days treatment
Method: CUL4A^high MDA-MB-468, CUL4^low (T47D), and MCF7 breast cancer cells were seeded in 96 well plates separately. Cells were treated with DMSO, or from 0 to 20 μM compound respectively. Replace with fresh medium and compounds every 48 hours. After 8 days treatment, cell viability was examined by CellTiter Glo kit (Promega #7570). First, transfer the appropriate volume (10 ml for Cat. #G7570) of CellTiter-Glo® Buffer into the amber bottle containing CellTiter-Glo® Substrate to reconstitute the lyophilized enzyme/substrate mixture. This forms the CellTiter-Glo® Reagent. Second, add CellTiter-Glo® Reagent in an equal volume (100 μl per well for 96-well plates) to all wells. Mix contents for 2 minutes on an orbital shaker to induce cell lysis. Incubate at room temperature for 15 minutes to stabilize luminescent signal. Then record luminescence. EC50 concentration was calculated by Prism 8 XY analysis nonlinear regression (curve fit-Log(inhibitor) vs response).

DDB1-BPB [5] = target: T1, DDB1-BPB; experiment: Surface Plasmon Resonance (SPR) binding to DDB1-BPB; conditions: DDB1-BPB immobilized
Text: Kd represents dissociation constant, which measures the affinity of small molecule binding to the scaffold DDB1-BPB by Surface Plasmon Resonance (SPR) (https://www.bio-rad.com/webroot/web/pdf/lsr/literature/Bulletin_6414.pdf, hereby incorporated by reference in its entirety) (see Table 1, column 8). To assess the interaction between DDB1-BPB and compounds, a multi-parametric SPR instrument (BioRad ProteON XPR360) was used. DDB1-BPB was immobilized onto the GLH sensor surface in a variety of ways as follows: flow channels were activated in parallel with 1/20 diluted EDC/SNHS. DDB1-BPB was diluted to 0.1 mg/mL in sodium acetate pH 4.5 and directly coupled onto channel for 4 min. Excess reactive esters were blocked with a 5-min injection of 1 M ethanolamine. Mean immobilization levels were 17,000 RU with <2% variation along a strip. One channel was left unmodified to provide an additional reference surface. Next, the binding kinetics of compounds on surfaces was determined in a single injection using a “one-shot” kinetic mode. Typically, compound was prepared as a twofold serial dilution (0, 3.125, 6.25, 12.5, 25, 50 μM) and injected for 60 s at […]. Dissociation was monitored for 800 s. Surfaces were regenerated with multiple 30-s pulses of 60 mM phosphoric acid so that the experiment could be reproduced. All resulting sensor grams were collected and analyzed using the ProteOn manager software.

[6] = Dynamic light scattering (DLS) solubility assay; assay type: physicochemical; conditions: normalized intensity ratio of 25 μM compound vs DMSO, in PBS
Method in brief: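 Compounds diluted from DMSO into PBS at final concentrations of 200 μM to 0.78 μM, in triplicate, and aggregation measured by light scattering intensity. A ratio above 2 scores insoluble (−), below 2 soluble (+), and around 2 (+/−).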

[7] = system: UV-induced CUL4-dependent DDB2 degradation in MEF-F-DDB2 cells; experiment: Cell-based assay for inhibition of UV-induced CUL4-dependent DDB2 degradation; design: key: (+) means that the normalized DDB2/α-tubulin ratio is higher in the compound treated sample than DMSO treated sample; (−) means that no change happens between compound treated sample with control sample; conditions: DDB2/α-tubulin by Western blot
Method in brief: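 MEF cells expressing Flag-DDB2, in serum-free medium, treated with DMSO or compound, UV-irradiated (254 nm, 0.2 W/m^2), then harvested. Flag-DDB2 measured by western blot against α-tubulin; (+) denotes normalized DDB2/α-tubulin above DMSO, (−) no change.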

[8] = 192 h, MDA-MB-468 cells, read-out: EC50 CUL4-High Cells (cell killing)
[9] = T47D cells, read-out: EC50 CUL4-Low Cells (cell killing)

- Kd (DDB1-BPB [5]): 5.58 µM
- IC50 [2]: 1060 ± 510 nM
SMILES: CS(=O)(=O)c1ccc(-c2nc(C(=O)O)cc3c2[nH]c2ccccc23)cc1 [PA35, 1-(4-methylsulfonylphenyl)-9H-pyrido[3,4-b]indole-3-carboxylic acid]
- EC50 [1, 8]: > 100 µM
- EC50 [3, 9]: > 100 µM

- Kd (DDB1-BPB [5]): 4.57 µM
- IC50 [2]: 780 ± 20 nM
- Solubility (DLS Assay) [6]: +/−
SMILES: Cc1ccc2[nH]c3c(-c4ccc(S(C)(=O)=O)cc4)nc(C(=O)O)cc3c2c1 [PA72]
- Degradation Inhibition (inhibition of UV-induced DDB2 degradation) [7]: −

- Kd (DDB1-BPB [5]): 7.34 µM
- IC50 [2]: 730 ± 350 nM
- Solubility (DLS Assay) [6]: +/−
SMILES: CS(=O)(=O)c1ccc(-c2nc(C(=O)O)cc3c2[nH]c2ccc(O)cc23)cc1 [PA73]
- EC50 [1, 8]: > 100 µM
- EC50 [3, 9]: > 100 µM

The next lines start with the molecule.

SMILES: CN(c1ccc(-c2nc(C(=O)O)cc3c2[nH]c2cc(F)ccc23)cc1)S(=O)(=O)c1ccccc1 [PA1-3, 7-fluoro-1-(4-(N-methylphenylsulfonamido)phenyl)-9H-pyrido[3,4-b]indole-3-carboxylic acid]
- EC50 [1, 8]: 0.48 µM
- EC50 ([1]; MDA-MB-468, 192 h, Table 3, 0 to 20 μM compound, read-out: EC50 OF cell killing, MDA-MB-468): 0.49 µM
- IC50 [2]: 530 nM
- EC50 [3, 9]: 3.42 µM
- EC50 ([3]; T47D, Table 3, 0 to 20 μM compound, read-out: EC50 OF cell killing, T47D): 3.42 µM
- Kd (DDB1-BPB [4]): 720 nM
- EC50 (MCF7 breast cancer cells): 3.36 µM

SMILES: COC(=O)c1cccc(-c2nc(C(=O)OC(C)(C)C)cc3c2[nH]c2ccccc23)c1 [PA43]
- EC50 [1, 8]: 28.3 µM
- Kd (SPR) (DDB1-BPB [5]): no binding
- AlphaLisa IC50 [2]: Neg
- EC50 [3, 9]: 48.2 µM
- Solubility (DLS Assay) [6]: -(insoluble)

SMILES: O=C(O)c1cc2c([nH]c3ccccc32)c(-c2ccc(NCc3ccc(F)cc3)cc2)n1 [PA68, 1-[4-[(4-fluorophenyl)methylamino]phenyl]-9H-pyrido[3,4-b]indole-3-carboxylic acid]
- EC50 [1, 8]: 9.12 µM
- Kd (DDB1-BPB [5]): 13.2 µM
- IC50 [2]: 2330 ± 860 nM
- EC50 [3, 9]: 11 µM
- Kd (MST) (DDB1-BPB [4]): Insoluble

SMILES: CS(=O)(=O)N(Cc1ccccc1)c1ccc(-c2nc(C(=O)O)cc3c2[nH]c2ccccc23)cc1 [PA76, 1-[4-[benzyl(methylsulfonyl)amino]phenyl]-9H-pyrido[3,4-b]indole-3-carboxylic acid]
- EC50 [1, 8]: 28.9 µM
- Kd (DDB1-BPB [5]): 4.54 µM
- IC50 [2]: 1520 ± 1130 nM
- EC50 [3, 9]: > 100 µM
- Degradation Inhibition (inhibition of UV-induced DDB2 degradation) [7]: +
